Measured values taken from PubChem BioAssay AID328 (DTP/NCI, 2004).
“And” between values parts separate entries of the source, which are not always exact repeats. Equal values may be shown once. Toxic doses and inconclusive results are not listed. The calls were made as follows: active = survival T/C of 150% or more; inactive = T/C below 125% in these data.

Tested on: BDF1 mice, P388 leukemia ip, median survival T/C
Assay: NCI In Vivo Anticancer Drug Screen. Data for tumor model P388 Leukemia (intraperitoneal) in B6D2F1 (BDF1) mice
Settings: endpoint: median survival time, higher = longer survival
Outline: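 Steps: implant the tumour, treat one group with compound and another with vehicle, record survival, then divide treated by control.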

[1] = dose: 100.0 mg/kg/injection, schedule: Q01DX009 (ip), vehicle: saline with Tween-80
[2] = dose: 100.0 mg/kg/injection, schedule: Q04DX003 (ip), vehicle: saline with Tween-80
[3] = dose: 200.0 mg/kg/injection, schedule: Q01DX009 (ip), vehicle: saline with Tween-80
[4] = dose: 200.0 mg/kg/injection, schedule: Q04DX003 (ip), vehicle: saline with Tween-80
[5] = dose: 400.0 mg/kg/injection, schedule: Q01DX009 (ip), vehicle: saline with Tween-80
[6] = dose: 400.0 mg/kg/injection, schedule: Q04DX003 (ip), vehicle: saline with Tween-80
[7] = dose: 100.0 mg/kg/injection, schedule: Q01DX009 (ip), vehicle: Klucel (hydroxypropylcellulose) (HPC)
[8] = dose: 100.0 mg/kg/injection, schedule: Q04DX003 (ip), vehicle: Klucel (hydroxypropylcellulose) (HPC)
[9] = dose: 200.0 mg/kg/injection, schedule: Q01DX009 (ip), vehicle: Klucel (hydroxypropylcellulose) (HPC)
[10] = dose: 200.0 mg/kg/injection, schedule: Q04DX003 (ip), vehicle: Klucel (hydroxypropylcellulose) (HPC)
[11] = dose: 400.0 mg/kg/injection, schedule: Q04DX003 (ip), vehicle: Klucel (hydroxypropylcellulose) (HPC)
[12] = dose: 50.0 mg/kg/injection, schedule: Q04DX003 (ip), vehicle: saline with Tween-80
[13] = dose: 25.0 mg/kg/injection, schedule: Q01DX009 (ip), vehicle: saline
[14] = dose: 50.0 mg/kg/injection, schedule: Q01DX009 (ip), vehicle: saline with Tween-80
[15] = dose: 6.25 mg/kg/injection, schedule: Q01DX009 (ip), vehicle: saline
[16] = dose: 12.5 mg/kg/injection, schedule: Q04DX003 (ip), vehicle: saline with Tween-80
[17] = dose: 25.0 mg/kg/injection, schedule: Q04DX003 (ip), vehicle: saline with Tween-80
[18] = dose: 100.0 mg/kg/injection, schedule: Q04DX003 (ip), vehicle: saline
[19] = dose: 200.0 mg/kg/injection, schedule: Q04DX003 (ip), vehicle: saline
[20] = dose: 400.0 mg/kg/injection, schedule: Q04DX003 (ip), vehicle: saline

Measured: T/C

O=C1C(c2ccccc2)=C(c2ccccc2)C(c2ccccc2)=C1c1ccccc1
inactive: dose: 0.78 mg/kg/injection, schedule: Q04DX003 (ip), vehicle: water 88 % of control | dose: 1.56 mg/kg/injection, schedule: Q01DX009 (ip), vehicle: water 103 % of control | dose: 1.56 mg/kg/injection, schedule: Q04DX003 (ip), vehicle: water 95 % of control | dose: 3.12 mg/kg/injection, schedule: Q01DX009 (ip), vehicle: water 94 % of control | dose: 3.12 mg/kg/injection, schedule: Q04DX003 (ip), vehicle: water 88 % of control | dose: 6.25 mg/kg/injection, schedule: Q01DX009 (ip), vehicle: water 97 % of control | dose: 6.25 mg/kg/injection, schedule: Q04DX003 (ip), vehicle: water 106 % of control | dose: 12.5 mg/kg/injection, schedule: Q01DX009 (ip), vehicle: water 94 % of control | dose: 12.5 mg/kg/injection, schedule: Q04DX003 (ip), vehicle: water 100 % of control | dose: 25.0 mg/kg/injection, schedule: Q01DX009 (ip), vehicle: water 97 % of control | dose: 50.0 mg/kg/injection, schedule: Q01DX009 (ip), vehicle: water 97 % of control | dose: 100.0 mg/kg/injection, schedule: Q01DX009 (ip), vehicle: water 101 % of control | dose: 200.0 mg/kg/injection, schedule: Q01DX009 (ip), vehicle: water 91 % of control | dose: 400.0 mg/kg/injection, schedule: Q01DX009 (ip), vehicle: water 87 % of control

c1ccc(-c2nnc3oc(-c4ccco4)nn23)cc1
inactive: [1] 91 % of control | [2] 90 % of control | [3] 108 % of control | [4] 100 % of control | [5] 100 % of control | [6] 95 % of control

O=C(c1ccccc1)c1c2ccccc2c(C(=O)c2ccccc2)c2ccccc12
inactive: [7] 105 % of control | [8] 91 % of control | [9] 100 % of control | [10] 100 % of control | [11] 95 % of control

OC(Cc1ccnc2ccccc12)C(Cl)(Cl)Cl (stereo not drawn)
inactive: [12] 100 % of control | [1] 100 % of control | [8] 105 % of control | [2] 100 % of control | [3] 100 % of control | [10] 100 % of control | [4] 105 % of control | [5] 100 % of control | [11] 115 % of control

CCCCCCCCN1CCCNCC1
inactive: [13] 100 % of control

CCOC1CC(C)C(C=O)C(C#N)(C#N)C1(C#N)C#N (stereo not drawn)
inactive: dose: 12.5 mg/kg/injection, schedule: Q01DX001 (ip), vehicle: saline with Tween-80 100 % of control | dose: 25.0 mg/kg/injection, schedule: Q01DX001 (ip), vehicle: saline with Tween-80 109 % of control | dose: 50.0 mg/kg/injection, schedule: Q01DX001 (ip), vehicle: saline with Tween-80 106 % of control

c1ccc(-c2nc3ccccc3nc2-c2ccc(Cc3ccc(-c4nc5ccccc5nc4-c4ccccc4)cc3)cc2)cc1
inactive: [14] 88 % of control | [1] 103 % of control | [3] 88 % of control

CCCCCCCCCCCCCCCCOCCCCCCCCCCCCCCCC
inactive: dose: 100.0 mg/kg/injection, schedule: Q01DX009 (ip), vehicle: other 86 % of control | dose: 100.0 mg/kg/injection, schedule: Q04DX003 (ip), vehicle: other 91 % of control | dose: 200.0 mg/kg/injection, schedule: Q01DX009 (ip), vehicle: other 86 % of control | dose: 200.0 mg/kg/injection, schedule: Q04DX003 (ip), vehicle: other 91 % of control

O=C1NN=C(c2ccc(Br)cc2)CS1
inactive: [14] 100 % of control | [1] 102 % of control

CCCCOB(CI)OCCCC
inactive: dose: 1.56 mg/kg/injection, schedule: Q01DX009 (ip), vehicle: saline 95 % of control | dose: 3.13 mg/kg/injection, schedule: Q01DX009 (ip), vehicle: saline 109 % of control | [15] 89 % of control and 109 % of control

CCOC(=O)/C(C#N)=C/C=C1\C=CC=CN1C
inactive: [14] 90 % of control

Cc1ccc(OCc2c(COc3ccc(Cl)cc3)sc3ccc(Cl)cc23)cc1
inactive: [16] 95 % of control | [17] 87 % of control

CC(Cc1ccc(O)c(O)c1)C(C)Cc1ccc(O)c(O)c1 (stereo not drawn)
inactive: dose: 50.0 mg/kg/injection, schedule: Q01DX010 (ip), vehicle: saline 100 % of control | dose: 100.0 mg/kg/injection, schedule: Q01DX010 (ip), vehicle: saline 104 % of control | dose: 200.0 mg/kg/injection, schedule: Q01DX010 (ip), vehicle: saline 104 % of control

c1ccc(C(=NCCN=C(c2ccccc2)c2ccccc2)c2ccccc2)cc1
inactive: [1] 87 % of control | [2] 100 % of control | [3] 104 % of control | [4] 91 % of control | [5] 112 % of control | [6] 95 % of control

O=C1C(Br)=C(Br)C(=O)C1(Br)Br
inactive: dose: 8.25 mg/kg/injection, schedule: Q01DX009 (ip), vehicle: saline with Tween-80 100 % of control | dose: 12.5 mg/kg/injection, schedule: Q01DX009 (ip), vehicle: saline with Tween-80 109 % of control | dose: 18.75 mg/kg/injection, schedule: Q01DX009 (ip), vehicle: saline with Tween-80 113 % of control

C=CC[Se]c1nc(N)nc2c1ncn2C1OC(CO)C(O)C1O (stereo not drawn)
inactive: [15] 105 % of control | dose: 6.25 mg/kg/injection, schedule: Q04DX003 (ip), vehicle: saline 100 % of control | dose: 12.5 mg/kg/injection, schedule: Q01DX009 (ip), vehicle: saline 111 % of control | dose: 12.5 mg/kg/injection, schedule: Q04DX003 (ip), vehicle: saline 100 % of control | [13] 100 % of control | dose: 25.0 mg/kg/injection, schedule: Q04DX003 (ip), vehicle: saline 95 % of control and 104 % of control | dose: 50.0 mg/kg/injection, schedule: Q04DX003 (ip), vehicle: saline 90 % of control | [18] 90 % of control

CCOC(=O)C(=Cc1ccc(C=C(C(=O)OCC)C(=O)OCC)cc1)C(=O)OCC
inactive: dose: 50.0 mg/kg/injection, schedule: Q01DX009 (ip), vehicle: Klucel (hydroxypropylcellulose) (HPC) 110 % of control | [7] 105 % of control | [8] 91 % of control | [9] 95 % of control | [10] 91 % of control

C[C@]12CC[C@@H](O)C[C@H]1CC[C@@H]1[C@@H]2CC[C@]2(C)C(=O)CC[C@@H]12
inactive: [1] 90 % of control | [2] 105 % of control | [3] 90 % of control | [4] 100 % of control | [5] 90 % of control | [6] 100 % of control

CC1CNC2C(C)C3C(CC4C5CCC6CC(N)CCC6(C)C5CCC43C)OC2(O)C1 (stereo not drawn)
inactive: [16] 112 % of control | [17] 100 % of control | [12] 91 % of control

CCOc1cccc(/C=N/n2c(-c3ccccc3Cl)nc3ccccc3c2=O)c1O
inactive: [14] 90 % of control | [1] 87 % of control

C[N+](C)(C)CCO
inactive: [18] 100 % of control | [19] 105 % of control | [20] 110 % of control

CC(=O)OCC(C)OC(C)=O (stereo not drawn)
inactive: dose: 100.0 mg/kg/injection, schedule: Q01DX009 (ip), vehicle: saline 91 % of control | [18] 100 % of control | dose: 200.0 mg/kg/injection, schedule: Q01DX009 (ip), vehicle: saline 112 % of control | [19] 100 % of control | [20] 96 % of control

Nc1n[nH]c(N)n1.[Ni]
inactive: [1] 100 % of control | [2] 91 % of control | [3] 95 % of control and 115 % of control | [4] 87 % of control | [5] 109 % of control | [6] 100 % of control

c1ccc(C[P+](c2ccccc2)(c2ccccc2)c2ccccc2)cc1
inactive: dose: 3.13 mg/kg/injection, schedule: Q01DX009 (ip), vehicle: Klucel (hydroxypropylcellulose) (HPC) 104 % of control | dose: 3.13 mg/kg/injection, schedule: Q04DX003 (ip), vehicle: Klucel (hydroxypropylcellulose) (HPC) 104 % of control | dose: 6.25 mg/kg/injection, schedule: Q01DX009 (ip), vehicle: Klucel (hydroxypropylcellulose) (HPC) 118 % of control | dose: 6.25 mg/kg/injection, schedule: Q04DX003 (ip), vehicle: Klucel (hydroxypropylcellulose) (HPC) 113 % of control | dose: 12.5 mg/kg/injection, schedule: Q04DX003 (ip), vehicle: Klucel (hydroxypropylcellulose) (HPC) 118 % of control
